Laboratory results as given in paper PMC12754760, “Size-Controlled Mesoporous Silica Nanoparticles via Template Nanoarchitectonics from a Deferoxamine Derivative for Enhanced Blood–Brain Barrier Permeability and Neuroprotective Chelation Therapy” (ACS Applied Materials & Interfaces, 2025).
Where a name gives a salt, the structure may show the parent alone.

Key:
[1] = in vivo; cited from earlier work
[2] = Caco-2 monolayer drug transport (in vitro BBB model); assay type: in vitro ADME; settings: human
Method: The preparation of the Caco-2 cell monolayer as an in vitro BBB model was performed as follows: Caco-2 cells were seeded at a density of 10.000 cells per well on a Millicell 96-well cell culture plate. The culture medium was replaced every 48 h. The formation of the monolayer was monitored by measuring the transepithelial electrical resistance (TEER) using an epithelial voltohmmeter (Millicell-ERS). After 21 days of culture, the Caco-2 cell monolayers were used for permeability experiments. All TEER values measured immediately before the experiments were above 300 Ω·cm^2, confirming the integrity of the monolayer.
Drug transport experiments were carried out following the previously published protocol. Briefly, after 21 days of culture, the medium was removed, and the cells were washed twice with Hank’s Balanced Salt Solution (HBSS) to eliminate any residual culture medium. Subsequently, the wells were refilled with HBSS and incubated at 37 °C for 30 min. After incubation, the HBSS was removed, and solutions containing the compound were added either to the filter well (apical side) or to the receiver plate (basolateral side), while HBSS without the compound was added to the corresponding opposite side. The final concentration of the compounds was 10^–4 M. The plates were then incubated at 37 °C for 2 h. At the end of the incubation period, the samples from both compartments were collected and analyzed by UV–vis spectroscopy. The apparent permeability coefficient (Papp), expressed in nm·s^–1, was calculated using the following equation: 1 Papp=[VA/(area×time)]×([drug]acceptor/[drug]receptor) where VA is the volume (mL) in the acceptor well, area is the surface area of the membrane (0.11 cm^2 of the well), time is the total transport time (7200 s), and [drug] is drug concentration measured by UV–vis spectroscopy.

[3] = Cell viability assay SH-SY5Y (MTT); assay type: cell-based; settings: human, SH-SY5Y cells
Method: Briefly, 10.000 BV-2 cells/well in 100 μL of culture medium were seeded into 96-well plates (transparent plate, clear bottom; Costar, Corning Inc.) and incubated overnight at 37 °C in 5% CO2. Stock solutions of the drug were preparate in DMSO, keeping it concentration <1% in the experiments. […] Stock solutions were prepared just before their use. Control wells with DMSO were used to evaluate the possible cytotoxicity of the solvent. After 72 h incubation, CCK-8 (10 μL) was added to each well, and after 3–4 h of incubation at 37 °C, the absorbance values at λ = 450 nm were determined on the Tecan Infinite 200 microplate reader. The cytotoxicity assay for SH-SY5Y was conducted by seeding cells at a density of 40.000 cells/well for 24 h in 96-well plate and incubated overnight. […] The plate was incubated for 24 h. After this time, MTT (10 μL) was added to each well, and after 3–4 h of incubation at 37 °C, the absorbance values at λ = 540 nm were determined on the Tecan Infinite 200 microplate reader.
Data were plotted as % cell viability, normalized vs untreated cells by using GraphPad Prism software version 7.05. Values are expressed as the mean ± SEM of at least three independent experiments. […]

For CC(=O)N(O)CCCCCNC(=O)CCC(=O)N(O)CCCCCNC(=O)CCC(=O)N(O)CCCCCN [DFO, Deferoxamine mesylate], which Plasma half-life [1] is on record?
Its Plasma half-life is 20 to 30 min.

And the Papp A→B at 2 h ([2]; apical-to-basolateral, 10^–4 M, 2 h, 37 °C)?
The Papp A→B at 2 h was 76.1 ×10⁻⁶ cm/s.

And the Papp B→A at 2 h ([2]; basolateral-to-apical, 10^–4 M, 2 h, 37 °C)?
Its Papp B→A at 2 h is 162 ×10⁻⁶ cm/s.

What about the efflux ratio at 2 h ([2]; read-out: BA/AB permeability ratio) of the same compound?
The efflux ratio at 2 h was 2.13.

What about the viability at 24 h, 100 µM [3] of the same compound?
The viability at 24 h, 100 µM was roughly 100%.
